From patent EP4285989A1 (priority 2021, dated 2022)

Experiments:
Type in all cases: cell-based
[1] = system: Clostridium butyricum M-II588; conditions: 1 w/v% carbohydrate, anaerobic, 37°C; for hydrogen generation (hydrogen production amount): 24 hours, calculated from increased amount of gas × hydrogen concentration (FIG. 6); for increased amount of gas: preculture 5 v/v%, 24 hours (FIG. 5)
[2] = system: Staphylococcus aureus IFO 12732; assay: Anti-bacterial action: Staphylococcus aureus count in (co-)culture, dilution plate technique; conditions: 20 hours, 37°C, anaerobic; 0.5 w/v% α-CD; butyric acid bacteria 9.4×10^6 CFU/mL; S. aureus 7.5×10^2 CFU/mL (FIG. 4)
Protocol: Culture of Staphylococcus aureus alone, Staphylococcus aureus and 0.5 w/v% α-CD in coexistence, Staphylococcus aureus and butyric acid bacteria in coexistence, or Staphylococcus aureus and butyric acid bacteria in coexistence with 0.5 w/v% α-CD added was performed at 37°C under an anaerobic condition, and the number of Staphylococcus aureus was counted 20 hours after the start of culture. The amount of Staphylococcus aureus added was 7.5×10^2 CFU/mL as the final concentration, and the amount of butyric acid bacteria added was 9.4×10^6 CFU/mL as the final concentration. The number of Staphylococcus aureus was measured by the dilution plate technique, that is, spreading a moderately diluted culture solution on an agar medium, culturing it at 37°C under an aerobic condition, and counting the number of colonies formed. The test results are shown as mean ± standard error of three samples.

[3] = system: Clostridium butyricum M-II588; conditions: 1 w/v% carbohydrate, anaerobic, 37°C, 20 hours
[4] = system: Clostridium butyricum M-II588; conditions: 1 w/v% carbohydrate, sugar-free medium, anaerobic, 37°C, 20 hours; compared to other carbohydrates (FIG. 1)

Row | Compound | hydrogen generation (hydrogen production amount) [1] | increased amount of gas [1] | proliferation of Staphylococcus aureus (number of Staphylococcus aureus) [2] | production of butyric acid ([3]; compared to other carbohydrates (FIG. 2)) | production of acetic acid ([3]; compared to other carbohydrates (FIG. 3)) | proliferation of butyric acid bacteria (turbidity change (ΔOD) at 660 nm) [4]
1 | OC[C@H]1O[C@@H](O[C@H]2[C@H](O)[C@@H](O)[C@@H](O[C@]3(CO)O[C@H](CO)[C@@H](O)[C@@H]3O)O[C@@H]2CO)[C@H](O)[C@@H](O)[C@H]1O [LS, Lactosucrose, reference compound] | very little | very little | – | – | – | –
2 | α-cyclodextrin [α-CD] | hydrogen was generated | significantly increased | almost no proliferation inhibiting effect | significantly promoted | significantly promoted | significantly promoted
